What follows are compounds tested against Human immunodeficiency virus type 1 protease (Human immunodeficiency virus 1, UniProt Q72874) (assay: The compound was tested in vitro for its inhibitory activity against HIV-1 Proteinase activity).
`CC1(C)S[C@H]([C@H](NC(=O)Cc2ccccc2)C(=O)NCc2ccccc2)N[C@H]1C(=O)NC[C@@H](O)[C@H](O)CNC(=O)[C@@H]1N[C@@H]([C@H](NC(=O)Cc2ccccc2)C(=O)NCc2ccccc2)SC1(C)C` showed an IC50 of 15 nM. Work on `CCCNC(=O)[C@@H](NC(=O)Cc1ccccc1)[C@@H]1N[C@@H](C(=O)NCC(CO)NC(=O)[C@@H]2N[C@@H]([C@H](NC(=O)Cc3ccccc3)C(=O)NCC)SC2(C)C)C(C)(C)S1` (stereo partly specified) yielded an IC50 of 25 nM. For `CC1(C)S[C@H]([C@H](NC(=O)Cc2ccccc2)C(=O)NCc2ccccc2)N[C@H]1C(=O)NC[C@@H](O)[C@@H](O)CNC(=O)[C@@H]1N[C@@H]([C@H](NC(=O)Cc2ccccc2)C(=O)NCc2ccccc2)SC1(C)C`, the IC50 was 14 nM. For `CCCNC(=O)[C@@H](NC(=O)Cc1ccccc1)[C@@H]1N[C@@H](C(=O)N(C)CCN(C)C(=O)[C@@H]2N[C@@H]([C@H](NC(=O)Cc3ccccc3)C(=O)NCC)SC2(C)C)C(C)(C)S1`, the IC50 was 11 nM. `CC1(C)S[C@H]([C@H](NC(=O)Cc2ccccc2)C(=O)NCc2ccccc2)N[C@H]1C(=O)NCCCCNC(=O)[C@@H]1N[C@@H]([C@H](NC(=O)Cc2ccccc2)C(=O)NCc2ccccc2)SC1(C)C` was tested, and the IC50 was 530 nM. `CC1(C)S[C@H]([C@H](NC(=O)Cc2ccccc2)C(=O)NCc2ccccc2)N[C@H]1C(=O)NC[C@H](O)[C@@H](O)CNC(=O)[C@@H]1N[C@@H]([C@H](NC(=O)Cc2ccccc2)C(=O)NCc2ccccc2)SC1(C)C` showed an IC50 of 36 nM.

From ChEMBL document CHEMBL1127200, “Novel dimeric penicillin derived inhibitors of HIV-1 proteinase: interaction with the catalytic aspartates” (Bioorg Med Chem Lett, 1993)
